Test results reported in patent publication US11084800B2 (Achillion Pharmaceuticals, Inc., priority 2017, dated 2021).

Biological target: Human Factor D (Homo sapiens (Human), UniProt P00746)
Experiment: Human Factor D Assay
Type: biochemical
Conditions: Factor D inhibition, assay of Example 10; read-out: IC5 (Stars)
In short: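 Thioester substrate Z-L-Lys-SBz (100 μM) with Ellman's reagent DTNB (100 μM) reports activity of 80 nM human serum-derived enzyme, kinetically at 405 nm over 30 min. Compound preincubated 5 min, room temperature, pH 7.5 Tris/1 M NaCl; IC50 by nonlinear fit of rates.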

Human Factor D, sequence (P00746 26-253): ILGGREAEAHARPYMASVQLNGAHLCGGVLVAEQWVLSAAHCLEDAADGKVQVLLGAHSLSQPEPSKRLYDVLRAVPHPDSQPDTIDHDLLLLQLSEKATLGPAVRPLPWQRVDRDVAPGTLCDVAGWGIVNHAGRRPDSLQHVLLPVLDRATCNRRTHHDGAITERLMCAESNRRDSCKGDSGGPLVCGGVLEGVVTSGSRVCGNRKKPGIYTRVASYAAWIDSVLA

| SMILES | IC50 |
| --- | --- |
| CC(=O)c1nn(CC(=O)N2[C@H](C(=O)Nc3nc(Br)ccc3C)C[C@@]3(C)C[C@@H]23)c2ccc(-c3ccncc3)cc12 [Compound 452, (1R,3S,5R)-2-(2-(3-acetyl-5-(pyridin-4-yl)-1H-indazol-1-yl)acetyl)-N-(6-bromo-3-methylpyridin-2-yl)-5-methyl-2-azabicyclo[3.1.0]hexane-3-carboxamide] | < 1000 nM |
| CCc1cc(-c2cnc(C)nc2)cc2c(C(C)=O)nn(CC(=O)N3[C@H](C(=O)Nc4nc(Br)ccc4C)C[C@@]4(CN(C)C)C[C@@H]34)c12 [Compound 316, (1R,3S,5R)-2-(2-(3-acetyl-7-ethyl-5-(2-methylpyrimidin-5-yl)-1H-indazol-1-yl)acetyl)-N-(6-bromo-3-methylpyridin-2-yl)-5-((dimethylamino)methyl)-2-azabicyclo[3.1.0]hexane-3-carboxamide] | < 1000 nM |
| CC(=O)c1nn(CC(=O)N2[C@H](C(=O)Nc3cc(Br)ncc3F)C[C@@]3(C)C[C@@H]23)c2cnc(-c3cnc(C)nc3)cc12 [Compound 461, (1R,3S,5R)-2-(2-(3-acetyl-5-(2-methylpyrimidin-5-yl)-1H-pyrazolo[3,4-c]pyridin-1-yl)acetyl)-N-(2-bromo-5-fluoropyridin-4-yl)-5-methyl-2-azabicyclo[3.1.0]hexane-3-carboxamide] | 1000 to 10000 nM |
| CC(=O)c1nn(CC(=O)N2[C@H](C(=O)Nc3cc(C(N)=O)cc(Br)n3)C[C@@]3(C)C[C@@H]23)c2ccc(-c3cnc(C)nc3)cc12 [Compound 503, (1R,3S,5R)-2-(2-(3-acetyl-5-(2-methylpyrimidin-5-yl)-1H-indazol-1-yl)acetyl)-N-(6-bromo-4-carbamoylpyridin-2-yl)-5-methyl-2-azabicyclo[3.1.0]hexane-3-carboxamide] | < 1000 nM |
| CC(=O)c1nn(CC(=O)N2[C@H](C(=O)Nc3nc(Br)ccc3CCCN3CCOCC3)C[C@@]3(C)C[C@@H]23)c2cnc(-c3cnc(C)nc3)cc12 [Compound 400, (1R,3S,5R)-2-(2-(3-Acetyl-5-(2-methylpyrimidin-5-yl)-1H-pyrazolo[3,4-c]pyridin-1-yl)acetyl)-N-(6-bromo-3-(3-morpholinopropyl)pyridin-2-yl)-5-methyl-2-azabicyclo[3.1.0]hexane-3-carboxamide] | < 1000 nM |
| CC(=O)c1nn(CC(=O)N2[C@H](C(=O)Nc3nc(Br)c(F)cc3C)C[C@@]3(Cc4nc(C)no4)C[C@@H]23)c2c(C)nc(-c3cnc(C)nc3)cc12 [Compound 423, (1R,3S,5R)-2-(2-(3-acetyl-7-methyl-5-(2-methylpyrimidin-5-yl)-1H-pyrazolo[3,4-c]pyridin-l-yl)acetyl)-N-(6-bromo-5-fluoro-3-methylpyridin-2-yl)-5-((3-methyl-1,2,4-oxadiazol-5-yl)methyl)-2-azabicyclo[3.1.0]hexane-3-carboxamide] | < 1000 nM |
| CC(=O)c1nn(CC(=O)N2[C@H](C(=O)Nc3nc(Br)ccc3C)C[C@@]3(CCCN(C)C)C[C@@H]23)c2c(CF)cc(-c3cnc(C)nc3)cc12 [Compound 345, (1R,3S,5R)-2-(2-(3-acetyl-7-(fluoromethyl)-5-(2-methylpyrimidin-5-yl)-1H-indazol-1-yl)acetyl)-N-(6-bromo-3-methylpyridin-2-yl)-5-(3-(dimethylamino)propyl)-2-azabicyclo[3.1.0]hexane-3-carboxamide] | < 1000 nM |
| CC(=O)c1cn(CC(=O)N2[C@H](C(=O)Nc3nc(Br)c(F)cc3C)C[C@@]3(C)C[C@@H]23)c2ccc(-c3cnc(C)nc3)cc12 [Compound 457, (1R,3S,5R)-2-(2-(3-acetyl-5-(2-methylpyrimidin-5-yl)-1H-indol-1-yl)acetyl)-N-(6-bromo-5-fluoro-3-methylpyridin-2-yl)-5 methyl-2-azabicyclo[3.1.0]hexane-3-carboxamide] | < 1000 nM |
| CC(=O)c1nn(CC(=O)N2[C@H](C(=O)Nc3nc(Br)ccc3C)C[C@@]3(CCS(C)(=O)=O)C[C@@H]23)c2c(C)cc(-c3cnc(C)nc3)cc12 [Compound 288, (1R,3S,5R)-2-(2-(3-acetyl-7-methyl-5-(2-methylpyrimidin-5-yl)-1H-indazol-1-yl)acetyl)-N-(6-bromo-3-methylpyridin-2-yl)-5-(2-(methylsulfonyl)ethyl)-2-azabicyclo[3.1.0]hexane-3-carboxamide] | < 1000 nM |
| CC(=O)c1nn(CC(=O)N2[C@H](C(=O)Nc3nc(Br)c(F)cc3C)C[C@@]3(C)C[C@@H]23)c2cnc(-c3cnc(C)[n+]([O-])c3)cc12 [Compound 254, 5-(3-acetyl-1-(2-((1R,3S,5R)-3-((6-bromo-5-fluoro-3-methylpyridin-2-yl)carbamoyl)-5-methyl-2-azabicyclo[3.1.0]hexane-2-yl)-2-oxoethyl)-1H-pyrazolo[3,4-c]pyridin-5-yl)-2-methylpyrimidine 1-oxide] | < 1000 nM |
| CC(=O)c1nn(CC(=O)N2[C@H](C(=O)Nc3nc(Br)ccc3Cl)C[C@@]3(Cc4nc(C)no4)C[C@@H]23)c2c(C)cc(-c3cnc(C)nc3)cc12 [Compound 428, (1R,3S,5R)-2-(2-(3-acetyl-7-methyl-5-(2-methylpyrimidin-5-yl)-1H-indazol-1-yl)acetyl)-N-(6-bromo-3-chloropyridin-2-yl)-5-((3-methyl-1,2,4-oxadiazol-5-yl)methyl)-2-azabicyclo[3.1.0]hexane-3-carboxamide] | < 1000 nM |
| CC(=O)c1nn(CC(=O)N2[C@H](C(=O)Nc3nc(Br)ccc3C)C[C@@]3(CN4CCC4)C[C@@H]23)c2c(CF)cc(-c3cnc(C)nc3)cc12 [Compound 353, (1R,3S,5R)-2-(2-(3-acetyl-7-(fluoromethyl)-5-(2-methylpyrimidin-5-yl)-1H-indazol-1-yl)acetyl)-5-(azetidin-1-ylmethyl)-N-(6-bromo-3-methylpyridin-2-yl)-2-azabicyclo[3.1.0]hexane-3-carboxamide] | < 1000 nM |
| Cc1ncc(-c2ccc3c(c2)c(C(=O)O)nn3CC(=O)N2[C@H](C(=O)Nc3nc(Br)ccc3C)C[C@@]3(C)C[C@@H]23)cn1 [Compound 469, 1-{2-[(1R,3S,5R)-3-[(6-Bromo-3-methylpyridin-2-yl)carbamoyl]-5-methyl-2-azabicyclo[3.1.0]hexan-2-yl]-2-oxoethyl}-5-(2-methylpyrimidin-5-yl)indazole-3-carboxylic Acid] | > 10000 nM |
| CC(=O)c1nn(CC(=O)N2[C@H](C(=O)Nc3nc(Br)ccc3C)C[C@@]3(CN4CC5(CCCC5)C4)C[C@@H]23)c2cnc(-c3cnc(C)nc3)cc12 [Compound 246, (1R,3S,5R)-5-(2-azaspiro[3.4]octan-2-ylmethyl)-2-(2-(3-acetyl-5-(2-methylpyrimidin-5-yl)-1H-pyrazolo[3,4-c]pyridin-1-yl)acetyl)-N-(6-bromo-3-methylpyridin-2-yl)-2-azabicyclo[3.1.0]hexane-3-carboxamide] | < 1000 nM |
| CC(=O)c1nn(CC(=O)N2C[C@@](F)(CF)C[C@H]2C(=O)Nc2nc(Br)ccc2C)c2c(C)nc(-c3cnc(C)nc3)cc12 [Compound 410, (2S,4R)-1-(2-(3-acetyl-7-methyl-5-(2-methylpyrimidin-5-yl)-1H-pyrazolo[3,4-c]pyridin-1-yl)acetyl)-N-(6-bromo-3-methylpyridin-2-yl)-4-fluoro-4-(fluoromethyl)pyrrolidine-2-carboxamide] | < 1000 nM |
| CC(=O)c1nn(CC(=O)N2C[C@H](F)C[C@H]2C(=O)Nc2cccc(I)n2)c2ccc(-c3cnc(C)nc3)cc12 [Compound 439, (2S,4R)-1-(2-(3-acetyl-5-(2-methylpyrimidin-5-yl)-1H-indazol-1-yl)acetyl)-4-fluoro-N-(6-iodopyridin-2-yl)pyrrolidine-2-carboxamide] | < 1000 nM |

Same assay, conditions: Table 6; Factor D 80 nM, substrate Z-L-Lys-SBz; read-out: IC50

| SMILES | IC50 |
| --- | --- |
| CC(=O)c1nn(CC(=O)N2[C@H](C(=O)O)C[C@@]3(C)C[C@@H]23)c2c(C)cc(-c3cnc(C)nc3)cc12 [Compound 126, (1R,3S,5R)-2-(2-(3-acetyl-7-methyl-5-(2-methylpyrimidin-5-yl)-1H-indazol-1-yl)acetyl)-5-methyl-2-azabicyclo[3.1.0]hexane-3-carboxylic acid] | > 10000 nM |
| COC[C@@]12C[C@@H](C(=O)Nc3nc(Br)ccc3C)N(C(=O)Cn3nc(C(C)=O)c4cc(-c5cnc(C)nc5)cc(C)c43)[C@@H]1C2 [Compound 98, (1R,3S,5S)-2-(2-(3-Acetyl-7-methyl-5-(2-methylpyrimidin-5-yl)-1H-indazol-1-yl)acetyl)-N-(6-bromo-3-methylpyridin-2-yl)-5-(methoxymethyl)-2-azabicyclo[3.1.0]hexane-3-carboxamide] | < 1000 nM |
| COCc1ccc(Br)nc1NC(=O)[C@@H]1C[C@@]2(CNC(=O)[C@@H](NC(=O)OC)C(C)C)C[C@H]2N1C(=O)Cn1nc(C(C)=O)c2cc(-c3cnc(C)nc3)ccc21 [Compound 153, Methyl ((S)-1-((((1R,3S,5R)-2-(2-(3-acetyl-5-(2-methylpyrimidin-5-yl)-1H-indazol-1-yl)acetyl)-3-((6-bromo-3-(methoxymethyl)pyridin-2-yl)carbamoyl)-2-azabicyclo[3.1.0]hexan-5-yl)methyl)amino)-3-methyl-1-oxobutan-2-yl)carbamate] | < 1000 nM |
| C=CCCCCN(C)C[C@@]12C[C@@H](C(=O)Nc3nc(Br)ccc3C=C)N(C(=O)Cn3nc(C(C)=O)c4cc(-c5cnc(C)nc5)ccc43)[C@@H]1C2 [Compound 123, (1R,3S,5R)-2-(2-(3-Acetyl-5-(2-methylpyrimidin-5-yl)-1H-indazol-1-yl)acetyl)-N-(6-bromo-3-vinylpyridin-2-yl)-5-((hex-5-en-1-yl(methyl)amino)methyl)-2-azabicyclo[3.1.0]hexane-3-carboxamide] | < 1000 nM |
| COCc1ccc(Br)nc1NC(=O)[C@@H]1C[C@@]2(COC)C[C@H]2N1C(=O)Cn1nc(C(C)=O)c2cc(-c3cnc(C)nc3)ccc21 [Compound 152, (1R,3S,5S)-2-(2-(3-Acetyl-5-(2-methylpyrimidin-5-yl)-1H-indazol-1-yl)acetyl)-N-(6-bromo-3-(methoxymethyl)pyridin-2-yl)-5-(methoxymethyl)-2-azabicyclo[3.1.0]hexane-3-carboxamide] | < 1000 nM |
